How the values were obtained:
human V1a receptor = target: T1, human V1a receptor (Homo sapiens, UniProt P37288); assay: Cellular in vitro assay for determining vasopressin receptor activity, V1a receptor cell line (CHO, aequorin luminescence); assay type: cell-based; conditions: for IC50: CHO cell line transfected with human V1a receptor, [Arg]-vasopressin at EC50 concentration, read-out: IC50 hV1a; for ratio IC50 hV2/hV1a: selectivity ratio IC50 hV2 / IC50 hV1a
T1 construct: expressed in transfected cells; host or cells: CHO K1 (ATCC), also stably transfected with a modified aequorin
T1 sequence (P37288 whole entry): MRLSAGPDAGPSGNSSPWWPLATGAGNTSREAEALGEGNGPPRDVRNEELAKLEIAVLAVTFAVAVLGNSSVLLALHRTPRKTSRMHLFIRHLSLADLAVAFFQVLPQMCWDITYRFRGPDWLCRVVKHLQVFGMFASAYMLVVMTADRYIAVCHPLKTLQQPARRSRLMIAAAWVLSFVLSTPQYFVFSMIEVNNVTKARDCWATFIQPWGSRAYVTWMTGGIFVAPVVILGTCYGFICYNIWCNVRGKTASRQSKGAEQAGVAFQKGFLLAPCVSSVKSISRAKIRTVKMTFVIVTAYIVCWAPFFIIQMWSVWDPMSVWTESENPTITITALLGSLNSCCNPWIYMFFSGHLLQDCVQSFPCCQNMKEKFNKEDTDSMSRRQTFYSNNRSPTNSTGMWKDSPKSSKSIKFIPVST
How it was run: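 Antagonism is measured in stable CHO K1 transfectants coexpressing the Gαq-coupled receptor and a calcium-sensitive aequorin photoprotein. Agonist challenge uses [Arg]-vasopressin at EC50 after a 10-minute compound exposure; IC50 values come from the luminescence signal.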

human V2 receptor = target: T2, human V2 receptor (Homo sapiens, UniProt P30518); assay: Cellular in vitro assay for determining vasopressin receptor activity, V2 receptor cell line (CHO, CRE-luciferase); assay type: cell-based; conditions: CHO cell line transfected with human V2 receptor; [Arg8]-vasopressin at EC50 concentration, 3 hours; read-out: IC50 hV2
T2 construct: expressed in transfected cells; host or cells: CHO K1 (ATCC) expressing firefly luciferase under a CRE-responsive promoter
T2 sequence (P30518 whole entry): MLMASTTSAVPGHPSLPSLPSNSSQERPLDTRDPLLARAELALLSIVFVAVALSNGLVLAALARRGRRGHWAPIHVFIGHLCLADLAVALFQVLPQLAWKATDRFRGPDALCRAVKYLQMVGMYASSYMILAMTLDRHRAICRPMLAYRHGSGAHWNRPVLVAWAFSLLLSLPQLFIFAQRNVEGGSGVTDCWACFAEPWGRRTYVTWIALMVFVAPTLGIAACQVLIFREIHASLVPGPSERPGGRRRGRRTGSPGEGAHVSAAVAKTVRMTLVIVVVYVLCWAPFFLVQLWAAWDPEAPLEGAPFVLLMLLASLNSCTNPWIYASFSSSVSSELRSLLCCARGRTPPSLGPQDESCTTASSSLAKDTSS

| SMILES | IC50 (human V1a receptor) [nM] | ratio IC50 hV2/hV1a (human V1a receptor) | IC50 (human V2 receptor) [nM] |
| --- | --- | --- | --- |
| O=C(NC1CC1)c1cccc(Cl)c1-n1cnc(Cn2nc(-c3ccc(Cl)cc3)n(C[C@H](O)C(F)(F)F)c2=O)n1 [Example 369, 3-Chloro-2-[3-({3-(4-chlorophenyl)-5-oxo-4-[(2S)-3,3,3-trifluoro-2-hydroxypropyl]-4,5-dihydro-1H-1,2,4-triazol-1-yl}methyl)-1H-1,2,4-triazol-1-yl]-N-cyclopropylbenzamide] | 2.8 | 167.9 | 470 |
| NC(=O)[C@@H]1CC(F)(F)CN1C(=O)c1cccc(Cl)c1-n1cnc(Cn2nc(-c3ccc(Cl)cc3)n(C[C@H](O)C(F)(F)F)c2=O)n1 [Example 372, 1-{3-Chloro-2-[3-({3-(4-chlorophenyl)-5-oxo-4-[(2S)-3,3,3-trifluoro-2-hydroxypropyl]-4,5-dihydro-1H-1,2,4-triazol-1-yl}methyl)-1H-1,2,4-triazol-1-yl]benzoyl}-4,4-difluoro-L-prolinamide] | 52.5 | 64.8 | 3400 |
| O=C(NC1CC1F)c1cccc(Cl)c1-n1cnc(Cn2nc(-c3ccc(Cl)cc3)n(C[C@H](O)C(F)(F)F)c2=O)n1 (stereo partly drawn) [Example 373, 3-Chloro-2-[3-({3-(4-chlorophenyl)-5-oxo-4-[(2S)-3,3,3-trifluoro-2-hydroxypropyl]-4,5-dihydro-1H-1,2,4-triazol-1-yl}methyl)-1H-1,2,4-triazol-1-yl]-N-[2-fluorocyclopropyl]benzamide] | 4.75 | 216.8 | 1030 |
| CC1(C)CN(C(=O)c2cccc(Cl)c2-n2cnc(Cn3nc(-c4ccc(Cl)cc4)n(C[C@H](O)C(F)(F)F)c3=O)n2)CCO1 [Example 375, 2-[(1-{2-Chloro-6-[(2,2-dimethylmorpholin-4-yl)carbonyl]phenyl}-1H-1,2,4-triazol-3-yl)methyl]-5-(4-chlorophenyl)-4-[(2S)-3,3,3-trifluoro-2-hydroxypropyl]-2,4-dihydro-3H-1,2,4-triazol-3-one] | 710 | 29.6 | 21000 |
| O=C(NC1CC(F)(F)C1)c1cccc(Cl)c1-n1cnc(Cn2nc(-c3ccc(Cl)cc3)n(C[C@H](O)C(F)(F)F)c2=O)n1 [Example 376, 3-Chloro-2-[3-({3-(4-chlorophenyl)-5-oxo-4-[(2S)-3,3,3-trifluoro-2-hydroxypropyl]-4,5-dihydro-1H-1,2,4-triazol-1-yl}methyl)-1H-1,2,4-triazol-1-yl]-N-(3,3-difluorocyclobutyl)benzamide] | 73.5 | 7.8 | 570 |
| O=C(c1cccc(Cl)c1-n1cnc(Cn2nc(-c3ccc(Cl)cc3)n(C[C@H](O)C(F)(F)F)c2=O)n1)N1CCC[C@H]1C(F)(F)F [Example 383, 5-(4-Chlorophenyl)-2-{[1-(2-chloro-6-{[(2S)-2-(trifluoromethyl)pyrrolidin-1-yl]carbonyl}phenyl)-1H-1,2,4-triazol-3-yl]methyl}-4-[(2S)-3,3,3-trifluoro-2-hydroxypropyl]-2,4-dihydro-3H-1,2,4-triazol-3-one] | 435 | 17.8 | 7750 |
| NC(=O)[C@H]1CC(F)(F)CN1C(=O)c1cccc(Cl)c1-n1cnc(Cn2nc(-c3ccc(Cl)cc3)n(C[C@H](O)C(F)(F)F)c2=O)n1 [Example 391, 1-{3-Chloro-2-[3-({3-(4-chlorophenyl)-5-oxo-4-[(2S)-3,3,3-trifluoro-2-hydroxypropyl]-4,5-dihydro-1H-1,2,4-triazol-1-yl}methyl)-1H-1,2,4-triazol-1-yl]benzoyl}-4,4-difluoro-D-prolinamide] | 52 | 65.4 | 3400 |
| O=C(NCCC(F)(F)F)c1cccc(Cl)c1-n1cnc(Cn2nc(-c3ccc(Cl)cc3)n(C[C@H](O)C(F)(F)F)c2=O)n1 [Example 392, 3-Chloro-2-[3-({3-(4-chlorophenyl)-5-oxo-4-[(2S)-3,3,3-trifluoro-2-hydroxypropyl]-4,5-dihydro-1H-1,2,4-triazol-1-yl}methyl)-1H-1,2,4-triazol-1-yl]-N-(3,3,3-trifluoropropyl)benzamide] | 22.5 | 12.4 | 280 |

More lines, in order of falling IC50 (human V1a receptor), values ahead:

| IC50 (human V1a receptor) [nM] | ratio IC50 hV2/hV1a (human V1a receptor) | IC50 (human V2 receptor) [nM] | SMILES |
| --- | --- | --- | --- |
| 435 | 22.0 | 9550 | O=C(c1cccc(Cl)c1-n1cnc(Cn2nc(-c3ccc(Cl)cc3)n(C[C@H](O)C(F)(F)F)c2=O)n1)N1CCS(=O)(=O)CC1 [Example 385, 2-[(1-{2-Chloro-6-[(1,1-dioxidothiomorpholin-4-yl)carbonyl]phenyl}-1H-1,2,4-triazol-3-yl)methyl]-5-(4-chlorophenyl)-4-[(2S)-3,3,3-trifluoro-2-hydroxypropyl]-2,4-dihydro-3H-1,2,4-triazol-3-one] |
| 195 | 19.0 | 3700 | O=C(NCC(F)(F)F)c1cccc(Cl)c1-n1cnc(Cn2nc(-c3ccc(Cl)cc3)n(C[C@@H](O)C(F)(F)F)c2=O)n1 [Example 366, 3-Chloro-2-[3-({3-(4-chlorophenyl)-5-oxo-4-[(2R)-3,3,3-trifluoro-2-hydroxypropyl]-4,5-dihydro-1H-1,2,4-triazol-1-yl}methyl)-1H-1,2,4-triazol-1-yl]-N-(2,2,2-trifluoroethyl)benzamide] |
| 111 | 17.9 | 2000 | O=C(c1cccc(Cl)c1-n1cnc(Cn2nc(-c3ccc(Cl)cc3)n(C[C@H](O)C(F)(F)F)c2=O)n1)N1CCC[C@@H]1C(F)(F)F [Example 384, 5-(4-Chlorophenyl)-2-{[1-(2-chloro-6-{[(2R)-2-(trifluoromethyl)pyrrolidin-1-yl]carbonyl}phenyl)-1H-1,2,4-triazol-3-yl]methyl}-4-[(2S)-3,3,3-trifluoro-2-hydroxypropyl]-2,4-dihydro-3H-1,2,4-triazol-3-one] |
| 92.5 | 36.8 | 3400 | CN(CC1CC1)C(=O)c1cccc(Cl)c1-n1cnc(Cn2nc(-c3ccc(Cl)cc3)n(C[C@H](O)C(F)(F)F)c2=O)n1 [Example 387, 3-Chloro-2-[3-({3-(4-chlorophenyl)-5-oxo-4-[(2S)-3,3,3-trifluoro-2-hydroxypropyl]-4,5-dihydro-1H-1,2,4-triazol-1-yl}methyl)-1H-1,2,4-triazol-1-yl]-N-(cyclopropylmethyl)-N-methylbenzamide] |
| 78 | 80.1 | 6250 | O=C(c1cccc(Cl)c1-n1cnc(Cn2nc(-c3ccc(Cl)cc3)n(C[C@H](O)C(F)(F)F)c2=O)n1)N1CCOCC1 [Example 382, 2-({1-[2-Chloro-6-(morpholin-4-ylcarbonyl)phenyl]-1H-1,2,4-triazol-3-yl}methyl)-5-(4-chlorophenyl)-4-[(2S)-3,3,3-trifluoro-2-hydroxypropyl]-2,4-dihydro-3H-1,2,4-triazol-3-one] |
| 47.5 | 30.5 | 1450 | O=C(c1cccc(Cl)c1-n1cnc(Cn2nc(-c3ccc(Cl)cc3)n(C[C@H](O)C(F)(F)F)c2=O)n1)N1CCC(F)(F)C1 [Example 374, 2-[(1-{2-Chloro-6-[(3,3-difluoropyrrolidin-1-yl)carbonyl]phenyl}-1H-1,2,4-triazol-3-yl)methyl]-5-(4-chlorophenyl)-4-[(2S)-3,3,3-trifluoro-2-hydroxypropyl]-2,4-dihydro-3H-1,2,4-triazol-3-one] |
| 33 | 12.7 | 420 | O=C(NCC1CC1)c1cccc(Cl)c1-n1cnc(Cn2nc(-c3ccc(Cl)cc3)n(C[C@H](O)C(F)(F)F)c2=O)n1 [Example 370, 3-Chloro-2-[3-({3-(4-chlorophenyl)-5-oxo-4-[(2S)-3,3,3-trifluoro-2-hydroxypropyl]-4,5-dihydro-1H-1,2,4-triazol-1-yl}methyl)-1H-1,2,4-triazol-1-yl]-N-(cyclopropylmethyl)benzamide] |
| 30 | 30.7 | 920 | O=C(NCC(F)(F)F)c1cccc(Cl)c1-n1cnc(Cn2nc(-c3ccc(Cl)cc3)n(C[C@H](O)C(F)(F)F)c2=O)n1 [Example 365, 3-Chloro-2-[3-({3-(4-chlorophenyl)-5-oxo-4-[(2S)-3,3,3-trifluoro-2-hydroxypropyl]-4,5-dihydro-1H-1,2,4-triazol-1-yl}methyl)-1H-1,2,4-triazol-1-yl]-N-(2,2,2-trifluoroethyl)benzamide] |
| 17 | 132.4 | 2250 | O=C(c1cccc(Cl)c1-n1cnc(Cn2nc(-c3ccc(Cl)cc3)n(C[C@H](O)C(F)(F)F)c2=O)n1)N1CCCCC1 [Example 381, 5-(4-Chlorophenyl)-2-({1-[2-chloro-6-(piperidin-1-ylcarbonyl)phenyl]-1H-1,2,4-triazol-3-yl}methyl)-4-[(2S)-3,3,3-trifluoro-2-hydroxypropyl]-2,4-dihydro-3H-1,2,4-triazol-3-one] |
| 16.5 | 369.7 | 6100 | O=C(NC1CC1)c1cccc(Cl)c1-n1cnc(Cn2nc(-c3ccc(Cl)cc3)n(C[C@@H](O)C(F)(F)F)c2=O)n1 [Example 393, 3-Chloro-2-[3-({3-(4-chlorophenyl)-5-oxo-4-[(2R)-3,3,3-trifluoro-2-hydroxypropyl]-4,5-dihydro-1H-1,2,4-triazol-1-yl}methyl)-1H-1,2,4-triazol-1-yl]-N-cyclopropylbenzamide] |
| 7.15 | 216.8 | 1550 | CC1(NC(=O)c2cccc(Cl)c2-n2cnc(Cn3nc(-c4ccc(Cl)cc4)n(C[C@H](O)C(F)(F)F)c3=O)n2)CC1 [Example 388, 3-Chloro-2-[3-({3-(4-chlorophenyl)-5-oxo-4-[(2S)-3,3,3-trifluoro-2-hydroxypropyl]-4,5-dihydro-1H-1,2,4-triazol-1-yl}methyl)-1H-1,2,4-triazol-1-yl]-N-(1-methylcyclopropyl)benzamide] |

Source: US11173151B2, “Substituted triazole derivatives and uses thereof” (BAYER AKTIENGESELLSCHAFT, priority 2017, dated 2021)
